Peptide text beside a SMILES is read from it. * marks the point of attachment. X1 = O=C(C[NH+]1CC[NH2+][Pt-2]1([Cl])[Cl])*
Experiments:
[1] = tested on: tumour cell lines (MCF7, M1735, MRC5 and A2780); test: Immunocytochemistry with anti-leader peptide antibody on treated cell lines (FIG. 1); assay type: cell-based, human; settings: immunohistochemical reaction, three hours of incubation
Method: The target cells (MCF-7) in continuous culture, derived from a mammary tumour of human origin, were incubated for three hours in the presence or absence of: (a) 24-amino acid leader peptide of rMnSOD-Lp-CC not conjugated to any other molecules, (b) 24-amino acid leader peptide conjugated to cisplatin.
After incubation, the cells were fixed with Zamboni fixative (solution composed of 4% paraformaldehyde+15% picric acid) for 60 minutes and washed with PBS. The cells were then maintained in PBS containing 0.3% hydrogen peroxide, with the aim of blocking endogenous peroxidases. The polyclonal antibody (anti-leader peptide of rMnSOD obtained from rabbit), diluted 1/200 was then added to the cells and left for 1 hour at ambient temperature. To develop the reaction, a DAKO SLAB Peroxidase K0679 kit was used.

[2] = tested on: MCF-7 cells; test: Quantitative determination by atomic absorption of cisplatin transported into tumour cells; assay type: cell-based, human
Method: The target cells MCF-7 were trypsinized, washed twice with buffered solution (PBS) and treated with 50 μl of 35% HNO3 for 16 hours. The platin content was determined by subjecting the samples to atomic absorption with an Analyst 800 instrument, by Perkin-Elmer, Norwalk, Conn., USA, using the following parameters: pre-treatment temperature, 1300° C.; atomization temperature, 2200° C.; using as the matrix modifier a composition of 0.015 mg of […] with 0.01 mg of Mg(NO3)2. The measurements were performed using the “Zeeman-effect background” correction system with Pyrolytic graphite-coated THGA tube (Perkin Elmer) and an integrated Lvov-type platform was used for metal determination. As standard solution we used a 2.5% HNO3 solution (Spectrascan) to obtain three reference points on the calibration curve.

[3] = tested on: Bax gene, normal cells; test: Bax gene expression in normal cells (FIG. 2); assay type: cell-based
Text: FIG. 2 confirms the apoptotic action of the rMnSOD-Lp-CC complex on various cell lines.
In the experiment, actin cDNA was inserted as control of quantitative DNA expression; to note that again in this case (a) indicates untreated cells, (b) indicates cells treated with the leader peptide of rMnSOD (b), and (c) indicates cells treated with the leader peptide conjugated to cisplatin.

[4] = tested on: tumour cells; settings: recent study, state of the art; cited from earlier work

## MLSRAVCGTSRQLAPALGYLGSRQ [leader peptide of rMnSOD]
[1]
  penetration into tumour cells / cell damage: penetrated tumour cells without damaging the cells
[2]; tumour cells, Table 1
  quantity of cisplatin transported into cells relative to cisplatin alone: double

## CSCC[C@H](NC(=O)C[NH+]1CC[NH2+][Pt-2]1([Cl])[Cl])C(=O)N[C@@H](CC(C)C)C(=O)N[C@@H](CO)C(=O)N[C@@H](CCCNC(=N)N)C(=O)N[C@@H](C)C(=O)N[C@H](C(=O)N[C@@H](CS)C(=O)NCC(=O)N[C@H](C(=O)N[C@@H](CO)C(=O)N[C@@H](CCCNC(=N)N)C(=O)N[C@@H](CCC(N)=O)C(=O)N[C@@H](CC(C)C)C(=O)N[C@@H](C)C(=O)N1CCC[C@H]1C(=O)N[C@@H](C)C(=O)N[C@@H](CC(C)C)C(=O)NCC(=O)N[C@@H](Cc1ccc(O)cc1)C(=O)N[C@@H](CC(C)C)C(=O)NCC(=O)N[C@@H](CO)C(=O)N[C@@H](CCCNC(=N)N)C(=O)N[C@@H](CCC(N)=O)C(=O)O)[C@@H](C)O)C(C)C (some centres unmarked) [rMnSOD-Lp-CC] (X1-MLSRAVCGTSRQLAPALGYLGSRQ-OH)
[3]
  toxic reaction / Bax gene expression: does not induce any toxic reaction

## N.N.[Cl][Pt][Cl] [Cisplatin, cisplatin]
[2]; MCF-7 Pellet, atomic absorption
  quantity of Pt, MCF-7 Pellet: 2.3 ng-Pt ng Pt
[2]; MCF-7 Solution, atomic absorption
  quantity of cisplatin, MCF-7 Solution: Cisplatin 8.7 μg/l
[2]; MCF-7 Solution, atomic absorption, value in brackets
  quantity of Pt, MCF-7 Solution: (3.5 μg Pt)

B1: LSA-type-MnSOD: manganese superoxide dismutase secreted by a liposarcoma cell line, 30 kDa (protein, UniProt P04179 25-222, looked up)
Superoxide dismutase [Mn], …: KHSLPDLPYDYGALEPHINAQIMQLHHSKHHAAYVNNLNVTEEKYQEALAKGDVTAQIALQPALKFNGGGHINHSIFWTNLSPNGGGEPKGELLEAIKRDFGSFDKFKEKLTAASVGVQGSGWGWLGFNKERGHLQIAACPNQDPLQGTTGLIPLLGIDVWEHAYYLQYKNVRPDYLKAIWNVINWENVTERYMACKK
[4]
  cytotoxicity to tumour cells: cytotoxic specifically and selectively to tumour cells

B2: rMnSOD: recombinant form of LSA-type-MnSOD produced by specific cDNA clones (protein, UniProt P04179 25-222, looked up)
Superoxide dismutase [Mn], …: KHSLPDLPYDYGALEPHINAQIMQLHHSKHHAAYVNNLNVTEEKYQEALAKGDVTAQIALQPALKFNGGGHINHSIFWTNLSPNGGGEPKGELLEAIKRDFGSFDKFKEKLTAASVGVQGSGWGWLGFNKERGHLQIAACPNQDPLQGTTGLIPLLGIDVWEHAYYLQYKNVRPDYLKAIWNVINWENVTERYMACKK
[4]
  cytotoxicity to tumour cells: retain the structural and oncotoxic properties of the native protein

From patent US8481481B2, “Peptides and their use as carriers into cancer cells” (Advanced Accelerator Applications S.A., priority 2008, dated 2013)
